Broadly, the half-life is the time in which the quantity being followed falls by half. A high value points to slow decline. In general, Papp refers to a coefficient for how fast a substance crosses the barrier. Read a high Papp as ready permeation.

Data set [1] can be described thus: in vitro. To be noted: rat.
Data set [2] is described as follows: in vitro. To be noted: PAMPA. A general note: In PAMPA a lipid-coated filter parts donor from acceptor wells.
For data set [3] the following is noted: PAMPA.
For data set [4] the following is noted: rat, microsomes.

SMILES strings stand for the structures.

On to `COc1ccc(Cl)c(NC(=O)c2cc(Cl)ccc2O)c1`, for which the half-life in “in vitro [1]” (liver microsomes) turned out to be 5.4 min. In addition, the Papp in the data set “in vitro [2]” amounted to 34 ×10⁻⁶ cm/s.
The like results for `O=C(Nc1c(Cl)cccc1Cl)c1cc(Cl)ccc1O` were, in that order, 24 min and 73 ×10⁻⁶ cm/s.
Regarding `NCCOc1ccc(Cl)cc1C(=O)Nc1ccc([N+](=O)[O-])cc1Cl`, in the data set “in vitro [1]” (liver microsomes), the half-life was > 30 min. The permeability in data set [3] is reported as 1023 10^-6 cm/s.
In the case of `O=C(Nc1ccc2cc([N+](=O)[O-])ccc2c1)c1cc(Cl)ccc1O`, the half-life in the data set “in vitro [1]” (liver microsomes) is > 30 min. In “in vitro [2]”, this compound returned an apparent permeability coefficient (Papp) of 447 ×10⁻⁶ cm/s.
Regarding `Nc1cccc(Cl)c1C(=O)Nc1ccc([N+](=O)[O-])cc1Cl`, in the data set “in vitro [1]” (liver microsomes), the half-life worked out at 2.2 min. This compound gave a Papp in “in vitro [2]” of 450 ×10⁻⁶ cm/s.
Turning to `COc1ccc(O)c(C(=O)Nc2ccc([N+](=O)[O-])cc2Cl)c1`, the half-life in “in vitro [1]” (liver microsomes) was 17.8 min. This compound also gave a Papp in “in vitro [2]” of 67.1 ×10⁻⁶ cm/s.
Consider `O=C(Nc1ccc(C(F)(F)F)cc1Cl)c1ccc2ccccc2c1O`, for which the half-life in “in vitro [1]” (liver microsomes) was > 30 min.
The same measure, in the same setting: the figure for `O=C(Nc1ccc([N+](=O)[O-])c(Cl)c1)c1cc(Br)ccc1O` is 20.3 min.
For `O=C(Nc1ccc(C(F)(F)F)c(Cl)c1)c1cc(Br)ccc1O`, the half-life in the data set “in vitro [1]” (liver microsomes) was > 30 min. Moreover, the Papp in “in vitro [2]” was determined as 23.2 ×10⁻⁶ cm/s.
Regarding `O=C(Nc1ccc([N+](=O)[O-])cc1Cl)c1ccc(Cl)cc1O`, in “in vitro [1]” (liver microsomes), the half-life is 21.2 min.
In the data set “in vitro [1]” (liver microsomes), `CN1CCC(NC(=O)c2cc(Cl)ccc2O)CC1` came in with a half-life of 1.8 min. In “in vitro [2]”, the Papp stood at 212 ×10⁻⁶ cm/s.
As to `O=C(Nc1ccc([N+](=O)[O-])cc1Cl)c1cc(Cl)ccc1O` [NICLOSAMIDE], the half-life in the data set “in vitro [1]” (microsomes) is > 30 min. In addition, in the data set “in vitro [2]”, the Papp is < 1 ×10⁻⁶ cm/s.
As for `O=C(Nc1ccc(F)c(Cl)c1)c1cc(Cl)ccc1O`, in the data set “in vitro [1]” (liver microsomes), the half-life worked out at 11 min.
In turn, `Nc1ccc(NC(=O)c2cc(Cl)ccc2O)c(Cl)c1` returned a half-life in “in vitro [1]” (liver microsomes) of 30 min. The compound also had a Papp in “in vitro [2]” of 152 ×10⁻⁶ cm/s.
In turn, `O=C(Nc1c(Cl)cc([N+](=O)[O-])cc1Cl)c1cc(Cl)ccc1O` came in with a half-life in “in vitro [1]” (liver microsomes) of 20 min.
`O=C(Nc1c(F)cccc1F)c1cc(Cl)ccc1O`: in “in vitro [1]” (liver microsomes), the half-life is > 30 min. Besides, the Papp in “in vitro [2]” was found to be 32 ×10⁻⁶ cm/s.
For `COc1cc([N+](=O)[O-])ccc1NC(=O)c1cc(Br)ccc1O`, the half-life in “in vitro [1]” (liver microsomes) is > 30 min.
`O=C(Nc1ccccc1C(F)(F)F)c1cc(Cl)ccc1O` displayed a half-life in “in vitro [1]” (liver microsomes) of 15 min. For the same compound, the Papp in “in vitro [2]” is 26 ×10⁻⁶ cm/s.
Consider `O=C(Nc1ccc([N+](=O)[O-])cc1Cl)c1cccc2cc[nH]c12`, for which the half-life in “in vitro [1]” (liver microsomes) was > 30 min. Moreover, in data set [3], the permeability is on record as 1763 10^-6 cm/s.
Consider `O=C(Nc1ccc(C(F)(F)F)cc1Cl)c1cc(Cl)ccc1O`, for which the half-life in the data set “in vitro [1]” (liver microsomes) was > 30 min.
`O=C(Nc1ccc(Cl)cc1)c1cc(Cl)ccc1O`: the half-life in the data set “in vitro [1]” (liver microsomes) was determined as 14 min. Further, the apparent permeability (Papp) in “in vitro [2]” turned out to be 297 ×10⁻⁶ cm/s.
For `O=C(Nc1ccc(C(F)(F)F)cc1)c1cc(Cl)ccc1O`, the half-life in “in vitro [1]” (liver microsomes) is > 30 min. Moreover, the Papp in the data set “in vitro [2]” is < 22.3 ×10⁻⁶ cm/s.
For `O=C(Nc1ccc(C(F)(F)F)cc1Cl)c1cc(-c2ccc(F)cc2F)ccc1O`, the half-life in the data set “in vitro [1]” (liver microsomes) is > 30 min.
`Nc1ccc(Cl)cc1C(=O)Nc1ccc([N+](=O)[O-])cc1Cl` came in with a half-life in the data set “in vitro [1]” (liver microsomes) of 8.7 min. Also, the apparent permeability (Papp) in the data set “in vitro [2]” amounted to 671 ×10⁻⁶ cm/s.
On to `N#Cc1ccc(NC(=O)c2cc(-c3ccc(F)cc3F)ccc2O)c(Cl)c1`, for which the half-life in the data set “in vitro [1]” (liver microsomes) is > 30 min.
`COc1ccc(Cl)cc1C(=O)Nc1ccc([N+](=O)[O-])cc1Cl` returned a half-life in “in vitro [1]” (liver microsomes) of 27 min. For the same compound, in data set [3], the permeability is given as 1007 10^-6 cm/s.
In data set [4], `O=C(Nc1ccc([N+](=O)[O-])cc1)c1cc(Cl)ccc1O` showed a Stabilty of 22 min. For the same compound, in data set [3], the permeability is on record as 127.1 10^-6 cm/s.
Regarding `Cc1cccc(NC(=O)c2cc(Cl)ccc2O)c1C`, the half-life in the data set “in vitro [1]” (liver microsomes) stood at 9.4 min. In addition, in “in vitro [2]”, the Papp turned out to be 48 ×10⁻⁶ cm/s.
`Cc1ccc(O)c(C(=O)Nc2ccc([N+](=O)[O-])cc2Cl)c1` yielded a half-life in the data set “in vitro [1]” (liver microsomes) of 19.5 min. In “in vitro [2]”, this compound registered an apparent permeability (Papp) of 134 ×10⁻⁶ cm/s.
The like results for `N#Cc1ccc(NC(=O)c2cc(Cl)ccc2O)c(Cl)c1` were, in that order, > 30 min and 5.1 ×10⁻⁶ cm/s.
For `O=C(Nc1c(Cl)cc(F)cc1Cl)c1cc(Cl)ccc1O`, in that order: 13 min and 25 ×10⁻⁶ cm/s.
`O=C(Nc1ccc([N+](=O)[O-])cc1Cl)c1cc(Cl)ccc1NS(=O)(=O)c1ccccc1`: the half-life in the data set “in vitro [1]” (liver microsomes) is > 30 min. Besides, the permeability in data set [3] was 2250 10^-6 cm/s.
In turn, `COc1ccc(NC(=O)c2cc(Cl)ccc2O)cc1` yielded a half-life in the data set “in vitro [1]” (liver microsomes) of 3.3 min. The compound also came in with a Papp in “in vitro [2]” of 81 ×10⁻⁶ cm/s.
`O=C(Nc1ccccc1[N+](=O)[O-])c1cc(Cl)ccc1O` yielded a Papp in “in vitro [2]” of 153 ×10⁻⁶ cm/s.
Regarding `N#Cc1ccc(NC(=O)c2ccc3ccccc3c2O)c(Cl)c1`, the half-life in the data set “in vitro [1]” (liver microsomes) amounted to 27 min. The same compound came in with an apparent permeability coefficient (Papp) in the data set “in vitro [2]” of 111 ×10⁻⁶ cm/s.
The like results for `O=C(Nc1ccc(F)cc1Cl)c1cc(Cl)ccc1O` were, in that order, 19.3 min and 50.5 ×10⁻⁶ cm/s.
On to `O=C(Nc1ccc(Cl)cc1Cl)c1cc(Cl)ccc1O`, for which the half-life in “in vitro [1]” (liver microsomes) was > 30 min. In the data set “in vitro [2]”, the Papp is < 22.4 ×10⁻⁶ cm/s.
Turning to `O=C(Nc1ccc(C(F)(F)F)cc1Cl)c1cc(Br)ccc1O`, the half-life in “in vitro [1]” (liver microsomes) was > 30 min.
As to `O=C(Nc1ccc([N+](=O)[O-])cc1Cl)c1c(O)cccc1O`, the half-life in the data set “in vitro [1]” (liver microsomes) stood at 26.2 min.
Take `O=C(Nc1ccc([N+](=O)[O-])cc1Cl)c1cc([N+](=O)[O-])ccc1O`: in the data set “in vitro [1]” (liver microsomes), the half-life is > 30 min. Besides, the apparent permeability (Papp) in “in vitro [2]” was found to be 30.3 ×10⁻⁶ cm/s.
For `O=C(Nc1ncc([N+](=O)[O-])s1)c1cc(Cl)ccc1O`, in that order: 3 min and 37 ×10⁻⁶ cm/s.
The like results for `O=C(Nc1ccncc1Cl)c1cc(Cl)ccc1O` were, in that order, > 30 min and 31 ×10⁻⁶ cm/s.
`COc1ccc(C(=O)Nc2ccc([N+](=O)[O-])cc2Cl)c(O)c1`: the half-life in the data set “in vitro [1]” (liver microsomes) was > 30 min. Moreover, the Papp in “in vitro [2]” was < 3 ×10⁻⁶ cm/s.
The like results for `N#Cc1ccc(NC(=O)c2cccc3cc[nH]c23)c(Cl)c1` were, in that order, 15 min and 553 ×10⁻⁶ cm/s.
With `CC(C)c1cnc(NC(=O)c2cc(Cl)ccc2O)s1`, the half-life in “in vitro [1]” (liver microsomes) came out at 2 min. Besides, the apparent permeability coefficient (Papp) in the data set “in vitro [2]” came to 117 ×10⁻⁶ cm/s.
Regarding `O=C(Nc1ccc(F)cc1F)c1cc(Cl)ccc1O`, the half-life in the data set “in vitro [1]” (liver microsomes) stood at 18 min.
Still for that read-out and setting: the figure for `O=C(Nc1ccc(C(F)(F)F)cc1)c1cc(Br)ccc1O` is > 30 min.
Regarding `O=C(Nc1ccc(F)cc1)c1cc(Cl)ccc1O`, in “in vitro [1]” (liver microsomes), the half-life stood at 18.4 min. Moreover, in data set [3], the permeability is recorded as 390.8 10^-6 cm/s.
With `O=C(Nc1ccc([N+](=O)[O-])cc1Cl)c1cc(Cl)ccc1OC1CCNCC1`, in the data set “in vitro [1]” (liver microsomes), the half-life was > 30 min. For the same compound, the Papp in “in vitro [2]” is 517 ×10⁻⁶ cm/s.
`O=C(Nc1ccc([N+](=O)[O-])cc1Cl)c1c(O)ccc2ccccc12`: the half-life in “in vitro [1]” (liver microsomes) was 14.4 min. In the data set “in vitro [2]”, this compound came in with an apparent permeability (Papp) of 356 ×10⁻⁶ cm/s.
Consider `O=C(Nc1ccc([N+](=O)[O-])cc1Cl)c1cc(-c2ccc(F)cc2F)ccc1O`, for which the half-life in the data set “in vitro [1]” (liver microsomes) is > 30 min. Besides, the Papp in the data set “in vitro [2]” is < 23.7 ×10⁻⁶ cm/s.
The like results for `O=C(Nc1ccc([N+](=O)[O-])cc1Cl)c1cnc2ccccc2c1O` were, in that order, 18 min and 499 ×10⁻⁶ cm/s.
The like results for `Cc1ccc(NC(=O)c2cc(Cl)ccc2O)cc1` were, in that order, 1.6 min and 21 ×10⁻⁶ cm/s.
In “in vitro [1]” (liver microsomes), `O=C(Nc1ccc([N+](=O)[O-])c2ccccc12)c1cc(Cl)ccc1O` gave a half-life of 10.7 min. Moreover, in the data set “in vitro [2]”, the Papp stood at 141 ×10⁻⁶ cm/s.
The compound `COc1cccc(NC(=O)c2cc(Cl)ccc2O)c1` gave a half-life in the data set “in vitro [1]” (liver microsomes) of 4 min. In “in vitro [2]”, this compound displayed a Papp of 43 ×10⁻⁶ cm/s.
For the compound `COc1cc([N+](=O)[O-])ccc1NC(=O)c1cc(Cl)ccc1O`, the half-life in the data set “in vitro [1]” (liver microsomes) is > 30 min.
Regarding `CC(=O)Nc1ccccc1C(=O)Nc1ccc([N+](=O)[O-])cc1Cl`, the Papp in the data set “in vitro [2]” was 431 ×10⁻⁶ cm/s.
`CN(C)C(=O)c1cccc(NC(=O)c2cc(Cl)ccc2O)c1` had a half-life in “in vitro [1]” (liver microsomes) of 26 min. Besides, the Papp in “in vitro [2]” was 5 ×10⁻⁶ cm/s.
Regarding `O=C(Nc1ccc(C(F)(F)F)c(F)c1)c1cc(Br)ccc1O`, in the data set “in vitro [1]” (liver microsomes), the half-life is > 30 min.
For `O=C(Nc1ccc([N+](=O)[O-])cc1Cl)c1ccc2ccccc2c1O`, the half-life in “in vitro [1]” (liver microsomes) was determined as 16.6 min. In “in vitro [2]”, this compound registered a Papp of 90.2 ×10⁻⁶ cm/s.
The like results for `CS(=O)(=O)Nc1ccc(Br)cc1C(=O)Nc1ccc([N+](=O)[O-])cc1Cl` were, in that order, > 30 min and 85.1 ×10⁻⁶ cm/s.
As to `O=C(Nc1ccccc1Cl)c1cc(Cl)ccc1O`, the half-life in the data set “in vitro [1]” (liver microsomes) turned out to be 19 min. Also, the permeability in data set [3] is listed as 118 10^-6 cm/s.
As for `CC(=O)c1ccc(O)c(C(=O)Nc2ccc([N+](=O)[O-])cc2Cl)c1`, in “in vitro [1]” (liver microsomes), the half-life is > 30 min. Moreover, the apparent permeability (Papp) in “in vitro [2]” stood at 33.1 ×10⁻⁶ cm/s.
As for `O=C(Nc1ccc([N+](=O)[O-])cc1Cl)c1cc(Br)ccc1O`, in the data set “in vitro [1]” (liver microsomes), the half-life was > 30 min. The compound further registered a Papp in “in vitro [2]” of 67.1 ×10⁻⁶ cm/s.
For `CC(=O)Nc1ccc(NC(=O)c2cc(Cl)ccc2O)c(Cl)c1`, in that order: > 30 min and 87 ×10⁻⁶ cm/s.
The like results for `NS(=O)(=O)c1ccc(NC(=O)c2cc(Cl)ccc2O)cc1` were, in that order, > 30 min and < 1 ×10⁻⁶ cm/s.
For `O=C(Nc1ccc([N+](=O)[O-])c(Cl)c1)c1cc(Cl)ccc1O`, in that order: 3.8 min and 68 ×10⁻⁶ cm/s.

These data come from ChEMBL document CHEMBL4819045 (Bioorg Med Chem Lett, 2021).
